Experimental data from patent publication US10980811B2, “Reversal of fosfomycin resistance” (University of Pittsburgh—Of the Commonwealth System of …, priority 2017, dated 2021).
Values after ≈ are worked out from the molar mass of the structure shown. Where two headings read alike, the source gives them in different places.

Tests used:
[1] = system: FosA3-producing E. coli YD472; assay: Growth curve analysis, FOM dose response with or without ANY1; type: cell-based; settings: 112 μg/mL ANY1; P=0.04
[2] = system: fosfomycin-resistant Escherichia coli strain containing a deletion in the uhpT gene; assay: Growth curves of FosA-non-producing uhpT deletion strain; type: cell-based; settings: absence and presence of 32 μg/mL fosfomycin; strain without FosA gene
Experimental: (§1) An overnight culture of each antibiotic-resistant bacterium was grown in Mueller-Hinton Broth at 37° C., 150 rpm. The following day, the culture was diluted such that its OD600 was 0.2. The diluted culture was allowed to grow at 37° C. for 1 h. Following this, the culture was diluted such that its OD600 was 0.1. In a 96-well, round-bottom plate, three groups were set-up. […] Group three contained 10 two-fold dilutions of fosfomycin (0-1024 μg/mL). All groups contained 25% volume of the […] and 25 μg/mL glucose-6-phosphate. The plate was incubated at 37° C. for up to […]. The OD600 was assessed every […]. Data was analyzed in PRISM software or SigmaPlot® software (Systat Software Inc., San Jose, Calif.). The initial OD600 subtracted as background, and fit with a logistic growth curve.
FIGS. 8A-8B show the growth curves of a fosfomycin-resistant Escherichia coli strain containing a deletion in the uhpT gene. […] Fosfomycin resistance is conferred by decreased transport of the antibiotic across the bacterial cell wall.

K. pneumoniae I1 = assay: Time-kill experiments; type: cell-based; settings: FOM with ANY1
FosA3 Y39F = FosA3 Y39F (Escherichia coli, UniProt D7UQM0, Y39F); assay: Tryptophan fluorescence binding studies
FosA3 Y131F = FosA3 Y131F (Escherichia coli, UniProt D7UQM0, Y131F); assay: Tryptophan fluorescence binding studies
[3] = target: FosA^KP (chromosomal K. pneumoniae FosA) (Klebsiella pneumoniae, UniProt W8UNW6); assay: Isothermal titration calorimetry; type: binding
E. coli MurA = E. coli MurA (Escherichia coli, UniProt P0A749); assay: Isothermal titration calorimetry; type: binding; settings: data not shown
[4] = target: FosA^KP (K. pneumoniae chromosomal FosA) (Klebsiella pneumoniae, UniProt W8UNW6); assay: FosA screening assay (monochlorobimane fluorescence, glutathione consumption); type: biochemical
FosA3 T9A = FosA3 T9A (Escherichia coli, UniProt D7UQM0, T9A); assay: Tryptophan fluorescence binding studies
FosA3 Y131A = FosA3 Y131A (Escherichia coli, UniProt D7UQM0, Y131A); assay: Tryptophan fluorescence binding studies
FosA3 S36A = FosA3 S36A (Escherichia coli, UniProt D7UQM0, S36A); assay: Tryptophan fluorescence binding studies
FosA3 Y65F = FosA3 Y65F (Escherichia coli, UniProt D7UQM0, Y65F); assay: Tryptophan fluorescence binding studies
[5] = system: KPC-producing clinical strain S. marcescens YDC760-2; assay: Growth curve analysis, FOM dose response with or without ANY1; type: cell-based; settings: 112 μg/mL ANY1; P<0.05
OK cells = assay: CellTiter-Glo luminescent cell viability assay; type: cell-based, marsupial; settings: 0-224 μg/mL ANY1; data not shown
Experimental: (§2) In all cases, cell viability was assessed using the CellTiter-Glo® luminescent cell viability assay.

[6] = system: KPC-producing clinical strain E. cloacae YDC612; assay: Growth curve analysis, FOM dose response with or without ANY1; type: cell-based; settings: 112 μg/mL ANY1; P<0.05
[7] = system: carbapenemase (KPC)-producing K. pneumoniae clinical strain I1; assay: Bacterial growth curve analysis (Gompertz model); type: cell-based; settings: for IC50: Klebsiella pneumoniae, read-out: IC50 for FOM (concentration decreasing maximum growth by 50%)
Experimental: Briefly, an overnight culture of K. pneumoniae I1 was diluted in Mueller-Hinton broth in a 96-well plate, incubated at 37° C. (150 rpm), and OD600 was assessed every 30 min.
The growth curves were modeled using a modified 3-parameter Gompertz equation (Zwietering et al., Appl Environ Microbiol 1990, 56(6)1875-81), which facilitated quantification of the lag time (min), growth rate (OD units/min) and maximum growth (OD units). […] The maximum growth value was determined from the curves in FIGS. 12A-12C using a 3-parameter Gompertz equation.

FosA3 WT = FosA3 WT (Escherichia coli, UniProt D7UQM0); assay: Tryptophan fluorescence binding studies
HK2 cells = assay: CellTiter-Glo luminescent cell viability assay; type: cell-based, human; settings: 0-224 μg/mL ANY1; data not shown
Experimental: as §2

[8] = system: fosfomycin-resistant, FosA-producing Klebsiella pneumoniae; assay: Growth inhibition of fosfomycin-resistant FosA-producing bacteria; type: cell-based; settings: with 32 μg/mL fosfomycin; K. pneumoniae
Experimental: (§3) Each bacterial strain is resistant to fosfomycin and caries the species-specific fosfomycin-modifying gene encoding FosA.
as §1

[9] = system: fosfomycin-resistant, FosA-producing Enterobacter cloacae; assay: as above; type: cell-based; settings: with 32 μg/mL fosfomycin; E. cloacae
Experimental: as §3, §1

[10] = system: fosfomycin-resistant, FosA-producing Escherichia coli; assay: as above; type: cell-based; settings: with 32 μg/mL fosfomycin; E. coli
Experimental: as §3, §1

[11] = system: fosfomycin-resistant, FosA-producing Pseudomonas aeruginosa; assay: as above; type: cell-based; settings: with 32 μg/mL fosfomycin; P. aeruginosa
Experimental: as §3, §1

FosA3 W34A = FosA3 W34A (Escherichia coli, UniProt D7UQM0, W34A); assay: biochemical
FosA = FosA (Klebsiella pneumoniae, UniProt W8UNW6); assay: Steady-state kinetics of ANY1 inhibition of FosA activity; type: biochemical; settings: for Vmax: 0-50 mM fosfomycin
Experimental: Assays were carried out in a volume of 50 μl at 25° C. in 0.1 M sodium phosphate buffer (pH 8.0) containing 50 mM KCl, 25 μM MnCl2, 30 mM glutathione, and 0-50 mM fosfomycin. A 100 nM concentration of FosA was used to initiate the reaction, which was quenched after 20 minutes for FosA. Reactions were quenched by the addition of 150 μl methanol. Quenched reactions were diluted in 100 μl of 0.1 M sodium phosphate buffer (pH 8.0) containing 1 mM EDTA. Following the addition of 500 μM monochlorobimane, the concentration of glutathione was established by fluorescence spectroscopy using a SpectraMax M2 plate reader (Molecular Devices). A standard curve was prepared using 0 to 750 μM glutathione. Data were fitted to Michaelis Menten equations using SigmaPlot (Systat Software Inc., San Jose, Calif.).

[12] = system: human peripheral blood mononuclear cells; assay: CellTiter-Glo luminescent cell viability assay; type: cell-based; settings: 0-224 μg/mL ANY1; data not shown
Experimental: as §2

FosA3 W46A = FosA3 W46A (Escherichia coli, UniProt D7UQM0, W46A); assay: biochemical
FosA3 R96A = FosA3 R96A (Escherichia coli, UniProt D7UQM0, R96A); assay: Tryptophan fluorescence binding studies
[13] = system: FosB enzyme from Gram-positive pathogens; assay: Isothermal titration calorimetry; type: binding; settings: data not shown
[14] = system: ESBL- and carbapenemase-producing Klebsiella pneumoniae; settings: ESBL- and carbapenemase-producing K. pneumoniae; cited from earlier work
[15] = system: chromosomal FosA genes expressed in E. coli; settings: cited from earlier work

O=c1[nH]n2cc(-c3n[nH]c(-c4cnc5c(Br)c(=O)[nH]n5c4)c3[N+](=O)[O-])cnc2c1Br [ANY1, 3-bromo-6-[3-(3-bromo-2-oxo-1H-pyrazolo[1,5-a]pyrimidin-6-yl)-4-nitro-1H-pyrazol-5-yl]-1H-pyrazolo[1,5-a]pyrimidin-2-one]
Decrease of the IC50 for FOM by ANY1 [1]: 1.8 fold
Inhibition of bacterial growth [2]: did not inhibit the bacterial growth
Effect of ANY1 on FOM activity in time-kill (K. pneumoniae I1): significantly increased FOM activity
Kd (FosA3 Y39F): 868 ± 201 nM
Kd (FosA3 Y131F): 551 ± 28 nM
Kd [3]: 180 ± 30 nM
Binding to E. coli MurA (E. coli MurA): did not bind
IC50 [4]: 5000 nM
Kd (FosA3 T9A): 1580 ± 97.6 nM
Kd (FosA3 Y131A): 4880 ± 770 nM
Kd (FosA3 S36A): 1360 ± 132 nM
Kd (FosA3 Y65F): 784 ± 74.7 nM
Decrease of the IC50 for FOM by ANY1 [5]: > 100 fold
Impact on cell viability (OK cells): no impact on cell viability
Decrease of the IC50 for FOM by ANY1 [6]: 23 fold
Reduction of FOM IC50 by ANY1 ([7]; 112 μg/mL ANY1, P<0.05): ~6 fold
Bacterial growth when FOM was combined with ANY1 ([7]; FOM 32, 64, 128 μg/mL with ANY1 14-224 μg/mL, dose dependent): significantly attenuated
Effect of ANY1 alone on growth ([7]; absence of FOM): no effect
Effect of ANY1 on the activity of gentamicin ([7]; gentamicin ± ANY1 dose-response): did not alter the activity of gentamicin
Increase in FOM activity (maximum growth) ([7]; highest ANY1 concentration tested): ~6 fold
Kd (FosA3 WT): 441 ± 50.1 nM
Impact on cell viability (HK2 cells): no impact on cell viability
Inhibition of FosA in the strain, reversing fosfomycin resistance (growth curves) [8]: effectively inhibited FosA
Inhibition of FosA in the strain, reversing fosfomycin resistance (growth curves) [9]: effectively inhibited FosA
Inhibition of FosA in the strain, reversing fosfomycin resistance (growth curves) [10]: effectively inhibited FosA
Inhibition of FosA in the strain, reversing fosfomycin resistance (growth curves) [11]: effectively inhibited FosA
Kd (FosA3 W34A): 2620 ± 205 nM
Vmax (FosA; 5 μM ANY1): 118.2
Vmax (FosA; 10 μM ANY1): 107
Vmax (FosA; 20 μM ANY1): 154.6
Mode of inhibition with respect to glutathione (FosA; data not shown): non-competitive inhibitor
Mode of inhibition with respect to fosfomycin binding to FosA (FosA; varying fosfomycin, 0-20 μM ANY1): competitive inhibitor
Impact on cell viability [12]: no impact on cell viability
Kd (FosA3 W46A): 2470 ± 111 nM
Kd (FosA3 R96A): 541 ± 90.1 nM
Binding to FosB [13]: did not bind

C[C@@H]1O[C@@H]1P(=O)(O)O [FOM, Fosfomycin]
MIC50 [14]: ~32 µg/mL (≈ 0.232 mM)
MIC90 [14]: ~128 µg/mL (≈ 0.927 mM)
IC50 ([7]; absence of ANY1): 144 ± 16.5 µg/mL (≈ 1.04 mM)
IC50 ([7]; presence of ANY1 (112 μg/mL)): 23.2 ± 4.3 µg/mL
MIC ([15]; FosA of Enterobacter aerogenes): >1024 µg/mL
MIC ([15]; FosA of Enterobacter cloacae): >1024 µg/mL
MIC ([15]; FosA of Klebsiella oxytoca): >1024 µg/mL
MIC ([15]; FosA of Klebsiella pneumoniae): >1024 µg/mL
MIC ([15]; FosA of Morganella morganii): >1024 µg/mL
MIC ([15]; FosA of Proteus mirabilis): 9.8 µg/mL (≈ 0.071 mM)
MIC ([15]; FosA of Providencia rettgeri): >1024 µg/mL
MIC ([15]; FosA of Providencia stuartii): >1024 µg/mL
MIC ([15]; FosA of Pseudomonas aeruginosa): 16 µg/mL (≈ 0.116 mM)
MIC ([15]; FosA of Serratia marcescens): >1024 µg/mL
